Data: patent US11382892B2, “Method for administration” (Hoffmann-La Roche Inc., priority 2012, dated 2022)
Several values for one entry are separate records, joined by “and”; a condition that tells them apart may be missing. Equal entries are not always repeated.

Key:
tumor proliferation = assay: FLT PET imaging of tumor proliferation in patients; type: in vivo, human; conditions: for FLT PET Average % CBL: cohort average; for FLT PET Median % CBL: cohort median; for FLT PET % CBL Cycle 1: individual patients
Procedure: The 10 mg tablets contain hypromellose acetate succinate, mannitol, microcrystalline cellulose, croscarmellose sodium, colloidal silicon dioxide, and magnesium stearate. The film-coat consists of hypromellose, titanium dioxide, talc, triacetin, iron oxide yellow, and iron oxide red. The 50 mg, 200 mg, and 400 mg film coated tablets contain the excipients hypromellose acetate succinate, croscarmellose sodium, colloidal silicon dioxide, and magnesium stearate. The film-coat consists of polyvinyl alcohol, titanium dioxide, polyethylene glycol, talc, iron oxide yellow, iron oxide red, and iron oxide black. […]
A negative percent change from baseline is indicative of an antiproliferative effect.

[1] = test system: human osteosarcoma cancer xenograft model SJSA1; assay: Survival / increase in life span in SJSA1 xenograft; type: in vivo, mice; conditions: for 50% Treatment Days (median survival): vehicle 26 days
Procedure: (§1) For survival assessment, the percent of increased life space (ILS) was calculated as: 100×[(median survival day of treated group−median survival day of control group)/median survival day of control group]. Median survival was determined utilizing Kaplan Meier survival analysis. Survival in treated groups was statistically compared with the vehicle group and survival comparisons were done between groups using the log-rank test (Graph Pad Prism, La Jolla, Calif., USA). Differences between groups were considered significant when the probability value (p) was ≤0:05.
(§2) All dose levels are reported as the actual dosage of Compound A rather than including drug plus polymer.
Female athymic Crl:NU-Foxn1nu mice (10/group), obtained from Charles River Laboratories (Wilmington, Del.) were utilized when they were approximately 10-12 weeks of age and weighed 23-25 g. The health of the mice was assessed daily by gross observation and analyses of blood samples taken from sentinel animals housed on shared shelf racks. All animals were allowed to acclimate and recover from any shipping-related stress for a minimum of 72 hours prior to experimental use. Autoclaved water and irradiated food (5058-ms Pico Lab mouse chow, Purina Mills, Richmond, Ind.) were provided ad libitum, and the animals were maintained on a 12 hour light and dark cycle. Cages, bedding and water bottles were autoclaved before use and changed weekly. All animal experiments were conducted in accordance with the Guide for the Care and Use of Laboratory Animals, local regulations, and protocols approved by the Roche Animal Care and Use Committee in an AAALAC accredited facility.
SJSA cells (ATCC) were maintained in RPMI 1640+10% (v/v) heat-inactivated FBS+i % (v/v) […] L-glutamine. Each mouse received 5×10^6 cells in a 1:1 mixture of phosphate buffered saline and Matrigel in a total volume of 0.2 ml. Cells were implanted subcutaneously in the right flank using a 1 cc syringe and a 26 gauge needle.
Treatment duration was 2-4 weeks. Dates of tumor implant, treatment initiation (study start date), and termination of treatment (study end date) can be found in Table 6 below. The starting tumor volume for this study was about 220 mm^3. Tumor volumes and animal body weights were measured three times per week and animals were monitored for clinical signs daily.

[2] = test system: human acute myeloid leukemia xenograft model MOLM-13; assay: Survival / increase in life span in MOLM-13 xenograft; type: in vivo, mice; conditions: 80 mg/kg qd × 5 po
Procedure: as §1, §2
Female SCID:beige mice (10/group), obtained from Charles River Laboratories (Wilmington, Del.) were utilized when they were approximately 8-10 weeks of age and weighed 21-23 g. The health of the mice was assessed daily by gross observation and analyses of blood samples taken from sentinel animals housed on shared shelf racks. All animals were allowed to acclimate and recover from any shipping-related stress for a minimum of 72 hours prior to experimental use. […]
Treatment duration was initiated on day 3 and was for 2 weeks. Animal body weights were measured three times per week and animals were monitored for clinical signs daily.

[3] = 100 mg/kg QD po 2 on/12 off x 2
[4] = 200 mg/kg (two 100 mg/kg doses 8 hr apart) 1x/wk po

For `COc1cc(C(=O)O)ccc1NC(=O)[C@@H]1N[C@@H](CC(C)(C)C)[C@](C#N)(c2ccc(Cl)cc2F)[C@H]1c1cccc(Cl)c1F` [Compound A, 4-{[(2R,3S,4R,5S)-4-(4-Chloro-2-fluoro-phenyl)-3-(3-chloro-2-fluoro-phenyl)-4-cyano-5-(2,2-dimethyl-propyl)-pyrrolidine-2-carbonyl]-amino}-3-methoxy-benzoic acid], the “FLT PET Average % CBL” value (tumor proliferation; BM-A1 800 mg bid Qwk × 3) was −17.0%, the “FLT PET Median % CBL” value (tumor proliferation; BM-A1 800 mg bid Qwk × 3) was −20.5% and the “FLT PET % CBL Cycle 1” value (tumor proliferation; BM-A1 800 mg bid Qwk × 3) was −28.5% and −21.9% and −29.5% and 8.9% and −19.0% and −11.7%. For the same molecule, the “FLT PET Average % CBL” value (tumor proliferation; BM-A2 1200 mg bid Qwk × 3) was −0.9%, the “FLT PET Median % CBL” value (tumor proliferation; BM-A2 1200 mg bid Qwk × 3) was 3.2% and the “FLT PET % CBL Cycle 1” value (tumor proliferation; BM-A2 1200 mg bid Qwk × 3) was −5.0% and 21.1% and −31.1% and 11.3% and −73.1%. For the same molecule, the “FLT PET Average % CBL” value (tumor proliferation; BM-B1 400 mg bid × 5 d) was −43.4%, the “FLT PET Median % CBL” value (tumor proliferation; BM-B1 400 mg bid × 5 d) was −32.2% and the “FLT PET % CBL Cycle 1” value (tumor proliferation; BM-B1 400 mg bid × 5 d) was −82.5% and −29.3% and −23.4% and −32.2%. For the same molecule, the “FLT PET Average % CBL” value (tumor proliferation; BM-B2 500 mg bid × 3 d) was −39.2%, the “FLT PET Median % CBL” value (tumor proliferation; BM-B2 500 mg bid × 3 d) was −34.9% and the “FLT PET % CBL Cycle 1” value (tumor proliferation; BM-B2 500 mg bid × 3 d) was −34.9% and −62.4% and −24.7% and −19.4% and −54.5%. The “FLT PET Average % CBL” value (tumor proliferation; BM-B3 500 mg qd × 5 d) was −29.04%, the “FLT PET Median % CBL” value (tumor proliferation; BM-B3 500 mg qd × 5 d) was −31.0% and the “FLT PET % CBL Cycle 1” value (tumor proliferation; BM-B3 500 mg qd × 5 d) was −56.4% and −34.3% and −21.7% and −31% and −1.8%. The “antiproliferative effect by FLT PET” value (tumor proliferation; all doses tested, in particular 3 day and 5 day schedules) was “antiproliferative effects was seen in all doses tested”, the “% Increased Life Span (% ILS)” value ([1]; 7.5 mg/kg QD po) was 23% and the “50% Treatment Days (median survival)” value ([1]; 7.5 mg/kg QD po) was 32 days. For the same molecule, the “% Increased Life Span (% ILS)” value ([1]; 15 mg/kg QD po) was 62%, the “50% Treatment Days (median survival)” value ([1]; 15 mg/kg QD po) was 42 days and the “% Increased Life Span (% ILS)” value ([1]; 20 mg/kg QD po 20 on/8 off) was 77%. The “50% Treatment Days (median survival)” value ([1]; 20 mg/kg QD po 20 on/8 off) was 46 days, the “% Increased Life Span (% ILS)” value ([1]; 30 mg/kg QD po) was 127% and the “50% Treatment Days (median survival)” value ([1]; 30 mg/kg QD po) was 59 days. For the same molecule, the “% Increased Life Span (% ILS)” value ([1]; 50 mg/kg 1x/wk po) was 23%, the “50% Treatment Days (median survival)” value ([1]; 50 mg/kg 1x/wk po) was 32 days and the “% Increased Life Span (% ILS)” value ([1]; 50 mg/kg QD po 2 on/5 off x 4) was 119%. For the same molecule, the “50% Treatment Days (median survival)” value ([1]; 50 mg/kg QD po 2 on/5 off x 4) was 57 days, the “% Increased Life Span (% ILS)” value ([1]; 50 mg/kg QD po 4 on/10 off x 2) was 112% and the “50% Treatment Days (median survival)” value ([1]; 50 mg/kg QD po 4 on/10 off x 2) was 55 days. For the same molecule, the “% Increased Life Span (% ILS)” value ([1]; 80 mg/kg QD po 5 on/23 off) was 127%, the “50% Treatment Days (median survival)” value ([1]; 80 mg/kg QD po 5 on/23 off) was 59 days and the “% Increased Life Span (% ILS)” value ([1]; 100 mg/kg 1x/wk po) was 77%. The “50% Treatment Days (median survival)” value ([1]; 100 mg/kg 1x/wk po) was 46 days, the “% Increased Life Span (% ILS)” value ([1]; 100 mg/kg QD po 2 on/5 off x 4) was 188% and the “50% Treatment Days (median survival)” value ([1]; 100 mg/kg QD po 2 on/5 off x 4) was 75 days. The “% Increased Life Span (% ILS)” value [1, 3] was 119%, the “50% Treatment Days (median survival)” value [1, 3] was 57 days and the “% Increased Life Span (% ILS)” value [1, 4] was 162%. For the same molecule, the “50% Treatment Days (median survival)” value [1, 4] was 68 days, the “% ILS” value [2] was 37% and the “50% Treatment Days (median survival)” value ([2]; vehicle 21 days) was 28 days.
